Data as given in patent publication US20250109168A1, “POLYPEPTIDE AND USE THEREOF IN REGULATING BLOOD GLUCOSE LEVEL AND/OR REDUCING FAT” (Greenyn Biotechnology Co., Ltd, priority 2023, published 2025).

B1: Polypeptide 4 (peptide)
peptide: MQIFVK
B2: Polypeptide 1 (peptide)
peptide: GGGDATRYSTGGGYS
B3: Polypeptide 2 (peptide)
peptide: INPNEQREV
B4: Polypeptide 3 (peptide)
peptide: MQIFVKTLTG

Legend:
[1] = system: p-Akt; assay: Cell test: western blotting of p-Akt in C2C12 mouse myoblasts; type: cell-based; conditions: for Expression of phosphorylated Akt, result in words: C2C12 cells, without induction by insulin, summary of Table 6; for p-Akt (change in expression): C2C12 mouse myoblasts, final concentration 20 μL/mL, 24 hours, western blotting
Procedure: (§1) C2C12 mouse myoblasts were obtained and were cultured in groups for 24 hours. After that, the culture medium of each group was added with human insulin (MedChemExpress LLC), polypeptide 1 of the present invention (SEQ ID No.: 1), polypeptide 2 of the invention (SEQ ID No.: 2), polypeptide 3 of the invention (SEQ ID No.: 3), polypeptide 4 of the invention (SEQ ID No.: 4), or polypeptide 5 (whose amino acid sequence number is SEQ ID No.: 5 and which was used for the control group) such that the final concentration of the added insulin/polypeptide in the culture medium was 20 μL/mL. The cells in each group were then cultured for another 24 hours, before the culture medium of each cell group was removed. The cells were subsequently washed with a phosphate-buffered solution, added with a radioimmunoprecipitation assay (RIPA) buffer containing a phosphatase inhibitor, and kept in a refrigerator, allowing reactions to take place for 30 minutes. Following that, the cells were thawed, subjected to vibration extraction with an ultrasonic vibrator for 5 minutes, and centrifuged. The supernatant of each cell group was collected and was analyzed by the western blotting method in order to determine changes in the expression of p-IR/IR, p-Akt, GLUT4, mTOR, PPARα, and p-AMPK in each cell group.

[2] = system: mTOR; assay: Cell test: western blotting of mTOR in C2C12 mouse myoblasts; type: cell-based; conditions: final concentration 20 μL/mL, 24 hours
Procedure: as §1

[3] = system: p-IR/IR; assay: Cell test: western blotting of p-IR/IR in C2C12 mouse myoblasts; type: cell-based; conditions: for Insulin receptor phosphorylation (p-IR/IR), result in words: C2C12 cells, without induction by insulin, summary of Table 6; for p-IR/IR (change in expression): C2C12 mouse myoblasts, final concentration 20 μL/mL, 24 hours, western blotting
Procedure: as §1

[4] = system: p-AMPK; assay: Cell test: western blotting of p-AMPK in C2C12 mouse myoblasts; type: cell-based; conditions: final concentration 20 μL/mL, 24 hours
Procedure: as §1

[5] = system: PPARα; assay: Cell test: western blotting of PPARα in C2C12 mouse myoblasts; type: cell-based; conditions: for Expression of PPARα, result in words: C2C12 cells, without induction by insulin, summary of Table 6; for PPARα (change in expression): C2C12 mouse myoblasts, final concentration 20 μL/mL, 24 hours, western blotting
Procedure: as §1

[6] = system: GLUT4; assay: Cell test: western blotting of GLUT4 in C2C12 mouse myoblasts; type: cell-based; conditions: for Expression of GLUT4, result in words: C2C12 cells, without induction by insulin, summary of Table 6; for GLUT4 (change in expression): C2C12 mouse myoblasts, final concentration 20 μL/mL, 24 hours, western blotting
Procedure: as §1

[7] = system: PGC-1α; assay: Cell test: western blotting of PGC-1α in C2C12 mouse myoblasts; type: cell-based; conditions: for Expression of PGC-1α, result in words: C2C12 cells, without induction by insulin, summary of Table 6; for PGC-1α (change in expression): C2C12 mouse myoblasts, final concentration 20 μL/mL, 24 hours, western blotting
Procedure: [The source words this procedure for another target and reports this target under the same test.] as §1

[8] = biological target: insulin receptor (mouse, UniProt P15208 28-1372); assay: cell-based or functional assay
Chain of insulin receptor (P15208 28-1372): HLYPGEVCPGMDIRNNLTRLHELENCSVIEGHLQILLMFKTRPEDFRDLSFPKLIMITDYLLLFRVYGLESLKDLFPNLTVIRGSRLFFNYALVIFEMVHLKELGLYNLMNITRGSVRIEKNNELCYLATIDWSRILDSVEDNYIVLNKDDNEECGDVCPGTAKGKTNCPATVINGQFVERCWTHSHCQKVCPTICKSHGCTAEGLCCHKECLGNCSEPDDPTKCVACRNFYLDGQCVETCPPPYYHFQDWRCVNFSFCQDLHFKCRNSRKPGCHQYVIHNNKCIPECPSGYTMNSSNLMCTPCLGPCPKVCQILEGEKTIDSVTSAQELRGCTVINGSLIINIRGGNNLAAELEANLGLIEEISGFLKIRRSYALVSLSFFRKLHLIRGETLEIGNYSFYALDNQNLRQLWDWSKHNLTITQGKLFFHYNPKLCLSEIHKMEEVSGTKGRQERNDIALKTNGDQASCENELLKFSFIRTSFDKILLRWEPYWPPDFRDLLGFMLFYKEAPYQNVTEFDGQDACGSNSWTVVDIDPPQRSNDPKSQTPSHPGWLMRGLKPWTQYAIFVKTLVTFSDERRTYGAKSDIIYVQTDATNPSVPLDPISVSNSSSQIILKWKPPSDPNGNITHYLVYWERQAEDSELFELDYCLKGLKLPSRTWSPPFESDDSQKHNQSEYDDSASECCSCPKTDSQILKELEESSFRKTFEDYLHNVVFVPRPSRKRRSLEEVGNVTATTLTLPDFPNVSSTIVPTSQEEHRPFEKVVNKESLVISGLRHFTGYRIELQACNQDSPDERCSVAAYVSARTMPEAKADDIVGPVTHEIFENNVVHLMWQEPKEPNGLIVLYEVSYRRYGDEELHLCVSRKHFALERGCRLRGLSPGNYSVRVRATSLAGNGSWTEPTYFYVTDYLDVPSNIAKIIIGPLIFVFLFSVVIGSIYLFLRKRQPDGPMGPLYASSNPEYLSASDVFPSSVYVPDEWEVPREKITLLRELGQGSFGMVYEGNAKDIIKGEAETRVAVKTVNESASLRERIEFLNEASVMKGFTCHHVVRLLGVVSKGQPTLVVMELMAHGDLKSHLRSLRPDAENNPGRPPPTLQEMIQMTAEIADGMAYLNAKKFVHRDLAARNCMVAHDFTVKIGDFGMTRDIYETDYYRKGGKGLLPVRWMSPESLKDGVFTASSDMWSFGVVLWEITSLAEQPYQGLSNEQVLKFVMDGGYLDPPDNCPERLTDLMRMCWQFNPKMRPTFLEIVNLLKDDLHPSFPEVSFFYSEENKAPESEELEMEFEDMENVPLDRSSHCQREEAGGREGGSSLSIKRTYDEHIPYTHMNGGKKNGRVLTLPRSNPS

Row | Molecule | Expression of phosphorylated Akt, result in words [1] | p-Akt (change in expression) [1] | mTOR (change in expression) [2] | Insulin receptor phosphorylation (p-IR/IR), result in words [3] | p-AMPK (change in expression) [4] | Expression of PPARα, result in words [5] | PPARα (change in expression) [5] | Expression of GLUT4, result in words [6] | GLUT4 (change in expression) [6] | Expression of PGC-1α, result in words [7] | PGC-1α (change in expression) [7] | p-IR/IR (change in expression) [3] | p-IR/IR [8]
1 | GGGDATRYSTGGGYS [polypeptide 1] | increase the expression of phosphorylated Akt | +196% | +136% | able to encourage insulin receptor phosphorylation | +232% | enhance the expression of PGC-1α and PPARα | +173% | increase the expression of phosphorylated Akt and GLUT4 | +376% | enhance the expression of PGC-1α | +161% |  | 
2 | INPNEQREV [polypeptide 2] | increase the expression of phosphorylated Akt | +29% | +22% | able to encourage insulin receptor phosphorylation | +70% | enhance the expression of PGC-1α and PPARα | +62% | increase the expression of phosphorylated Akt and GLUT4 | +23% | enhance the expression of PGC-1α | +0% |  | 
3 | MQIFVK [polypeptide 4] | failure to increase the expression of phosphorylated Akt significantly | −3% | +74% | able to encourage insulin receptor phosphorylation | +91% | enhance the expression of PGC-1α and PPARα | +151% | increase the expression of GLUT4 | +156% | enhance the expression of PGC-1α | +155% |  | 
4 | MQIFVKTLTG [polypeptide 3] | increase the expression of phosphorylated Akt | +153% | +117% | able to encourage insulin receptor phosphorylation | +210% | enhance the expression of PGC-1α and PPARα | +196% | increase the expression of phosphorylated Akt and GLUT4 | +582% | enhance the expression of PGC-1α | +258% |  | 
5 | VATVIQVL [polypeptide 5, reference compound] | failed to increase the expression of phosphorylated Akt | −42% | +0% |  | +7% | weaker enhancing effect | +23% | weaker enhancing effect | +34% | weaker enhancing effect | +3% | 1 | 
6 | human insulin (MedChemExpress LLC) (from UniProt P01308 25-54; P01308 90-110) (ligand) |  |  |  |  |  |  |  |  |  |  |  |  | 1.23
7 | human insulin [reference compound] |  | +56% | −2% |  | +1% |  | +40% |  | +41% |  | +50% | 1.23 | 
8 | B1 |  |  |  |  |  |  |  |  |  |  |  |  | 1.97
9 | B2 |  |  |  |  |  |  |  |  |  |  |  |  | 1.81
10 | B3 |  |  |  |  |  |  |  |  |  |  |  |  | 1
11 | B4 |  |  |  |  |  |  |  |  |  |  |  |  | 3.08
